Data reported in patent publication US12060336B1, “(2E)-4-[(4-chlorophenyl)amino]-N-phenyl-2-(phenylimino)-1,3,5-dioxazepine-7-carboxamide as an eco-friendly insecticidal agent against Spodoptera littoralis (boisd.)” (King Faisal University, priority 2023, dated 2024).
Converted amounts (≈) assume the structure as drawn. Where two headings read alike, the source gives them in different places.

Assays:
[1] = test system: Spodoptera littoralis larvae; assay: Insecticidal leaf dip bioassay screening; details: for Toxicity index %: 72 hours, fenoxycarb's LC50/compound's LC50 * 100; for LC50: Spodoptera littoralis, foliar, 72 h
Procedure: Five concentrations (200, 100, 50, 25, 12.5 ppm) were designed for this synthetic compound and the reference fenoxycarb's compound as the dynamic ingredients based on ppm via diluting the commercial formulation.
In this experiment, the synthetic compound was tested for its insecticidal bioactivity using the industry-standard leaf dip bioassay techniques. Preparation of the compound stocks to create 1000 ppm, 0.1 g of compounds 2 were dissolved in five mL of Dimethyl formamide & combined with 5 mL of distilled water. Until usage, the stocks were kept in a refrigerator. The target substance test results were noted & the concentrations needed to destroy 50% (LC50) of S. littoralis larvae were calculated. The target compound was employed in five different concentrations, & 0.1% Tween 80 was employed as a surfactant. Castor bean leaf discs (nine centimeters in diameter) were dipped in the concentration under test for ten seconds, then fed to 2th & 4th larvae, which were roughly the same size and housed in glass jars (five pound). Each action carried out 3 times with ten larvae each. The mortality equalized via Abbott's formula. Calculations of mortality setback line were measurably rummage via probity analysis. Harmfulness index was strongminded via sun equations. The mortality results of larval insect were estimated through employing probit analysis through a statistics (LDP-line) equation which estimate the LC50 values with 95% fiducially limits of lower, upper confidence limit and slope.

[2] = test system: aquatic insects; details: cited from earlier work
[3] = read-out: LC50 (mg/L) at 95%, 2nd instar larvae, laboratory strain S. littoralis, after 72 hours of treatment
[4] = read-out: LC50 (mg/L) at 95%, 4th instar larvae, laboratory strain S. littoralis, after 72 hours of treatment

| SMILES | activity against Spodoptera littoralis ([1]; 2nd and 4th instar larvae, FIGS. 1A-1B, compared with Fenoxycarb) | Toxicity index % ([1]; 2nd instar larvae) | Toxicity index % ([1]; 4th instar larvae) | LC50 [1, 3] | LC50 [1, 4] | LC50 [2] |
| --- | --- | --- | --- | --- | --- | --- |
| O=C(Nc1ccccc1)C1=CN=C(Nc2ccc(Cl)cc2)O/C(=N/c2ccccc2)O1 [Compound 2, (2E)-4-[(4-chlorophenyl)amino]-N-phenyl-2-(phenylimino)-1,3,5-dioxazepine-7-carboxamide] | active against Spodoptera littoralis | 10.31% | 23.54% | 57.6 mg/L (≈ 133 µM) | ~254 mg/L (≈ 588 µM) | – |
| CCOC(=O)NCCOc1ccc(Oc2ccccc2)cc1 [fenoxycarb, reference compound] | – | 100% | 100% | 5.94 mg/L (≈ 19.7 µM) | 59.9 mg/L (≈ 199 µM) | – |
| CCc1ccc(C(=O)NN(C(=O)c2cc(C)cc(C)c2)C(C)(C)C)cc1 [tebufenozide] | – | – | – | – | – | 100 to 1000 µg/mL |
